Results on two compounds are retold here after patent US20080306067A1, “Modulators of Chemokine Receptor Activity” (priority 2005, published 2008).

The target of test [1] is T1, human CCR-3 (Homo sapiens, UniProt P51677).
T1 construct: expressed in transfected cells; membrane preparation
T1 sequence (P51677 1-355): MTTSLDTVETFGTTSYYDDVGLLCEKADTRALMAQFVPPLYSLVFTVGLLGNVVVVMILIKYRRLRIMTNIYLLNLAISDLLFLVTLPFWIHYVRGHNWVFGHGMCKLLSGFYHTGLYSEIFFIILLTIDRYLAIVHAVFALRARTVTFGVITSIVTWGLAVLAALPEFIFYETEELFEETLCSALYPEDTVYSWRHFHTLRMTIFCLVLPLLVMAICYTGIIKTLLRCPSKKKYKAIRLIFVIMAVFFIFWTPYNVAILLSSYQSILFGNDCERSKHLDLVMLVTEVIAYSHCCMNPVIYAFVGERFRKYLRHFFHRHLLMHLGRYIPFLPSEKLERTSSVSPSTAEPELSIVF
Nature of the test: binding of [125I]-human eotaxin to human CCR-3 (SPA, membranes of RBL-2H3 cells expressing CCR3). The following applies: 4 hours at room temperature, read-out: IC50 (inhibition of binding of eotaxin to CCR-3). The method, then:
In this assay the effect of the compounds of the present invention on the binding of human eotaxin to human CCR-3 is determined. Recombinant cells expressing human CCR-3 are captured by wheatgerm agglutinin (WGA) polyvinyltoluidene (PVT) SPA beads (available from Amersham), through a specific interaction between the WGA and carbohydrate residues of glycoproteins on the surface of the cells. [^125I]-human eotaxin (available from Amersham) binds specifically to CCR-3 receptors bringing the [^125I]-human eotaxin in close proximity to the SPA beads. Emitted â-particles from the [^125I]-human eotaxin excite, by its proximity, the fluorophore in the beads and produce light.
Preparation of Assay Buffer. 5.96 g HEPES and 7.0 g sodium chloride are dissolved in distilled H2O and 1M aq. CaCl2 (1 ml) and 1M aq. MgCl2 (5 ml) are added. The pH is adjusted to 7.6 with NaOH and the solution made to a final volume of 1 L using distilled H2O. 5 g of bovine serum albumin and 0.1 g NaN3 are dissolved in the solution and the resulting buffer stored at 4° C. […]
The assay is performed in a final volume of 250 μl per well of an Optiplate™ microplate (ex Canberra Packard). […] The resulting scintillations are counted using a Canberra Packard TopCount™ scintillation counter, each well being counted for 1 minute. […]

The target in test [2] is alpha-1 adrenergic receptor. Description: alpha-1 adrenergic receptor radioligand binding assay ([125I]-HEAT, rat cerebral cortex membranes). The settings on record: radioligand used at 40 pM. The method, then:
The inhibitory properties of the compounds of the present invention on binding of the alpha-1 adrenergic receptor can be determined in the following assay:
Cerebral cortices from male Sprague-Dawley rats (175-200 g) are dissected and homogenised in 10 volumes of ice cold 0.32 M sucrose (containing 1 mM MgCl2 dihydrate and 1 mM K2HPO4) with a glass/Teflon homogeniser. The membranes are centrifuged at 1000×g for 15 minutes, the pellet discarded and the centrifugation repeated. The supernatants are pooled and centrifuged at 18,000×g for 15 minutes. The pellet is osmotically shocked in 10 volumes of H2O and kept on ice for 30 minutes. The suspension is centrifuged at 39,000×g for 20 minutes, resuspended in Krebs-Henseleit buffer pH 7.4 (1.17 mM MgSO4 anhydrous, 4.69 mM KCl, 0.7 mM K2HPO4 anhydrous, 0.11 M NaCl, 11 mM D-glucose and 25 mM NaHCO3) containing 20 mM Tris, and kept for 2 days at −20° C. […]
The resulting membranes are subjected to a radioligand binding assay. […] Following drying of the plates for 3 h. at 50° C., 40 μl of Microscint 20 is added to each well, the plates incubated at room temperature for a further 20 minutes and the retained radioactivity quantified in a Packard TopCount NXT™ scintillation counter. […]

SMILES strings stand for the structures.

For `CN(CCCCNC(=O)Nc1cccc(-c2nnnn2C)c1)Cc1ccc(F)cc1` [Example 1, 1-{4-[(4-Fluorobenzyl)-methylamino]butyl}-3-[3-(1-methyl-1H-tetrazol-5-yl)phenyl]-urea], the IC50 (usually the midpoint of a concentration-inhibition curve) in test [1] was roughly 6 nM.
For the compound `O=C1c2ccccc2CCC1CNCCc1ccc(O)c(I)c1` (centres unmarked) [[^125I]-HEAT], the Kd – broadly, the constant that tells how readily two partners part at equilibrium – in test [2] was 0.0589 ± 0.0187 nM.
